Usually MIC stands for the least concentration at which growth counts as inhibited. High values mean weaker potency, low ones greater potency. As a reminder, the GI50 is the concentration that inhibits growth by half. The low end stands for greater sensitivity of the cells, the high end for lower sensitivity of the cells.

One test deals with P388. The experiment in a line: Antiproliferative activity against mouse P388 cells. In kind it is functional. The note with it: read-out: ED50 (the source's name).
Test [1] deals with Enterococcus faecalis. Nature of the test: Antibacterial activity against Enterococcus faecalis ATCC 29212 by broth microdilution assay. In kind it is functional. (In general: In broth dilution the organism is exposed to a series of concentrations in liquid medium.)
The next test relates to Neisseria gonorrhoeae. Nature of the test: Antibacterial activity against Neisseria gonorrhoeae ATCC 49226 at 64 ug/ml by broth microdilution assay. It counts as functional, organism-based.
The next test deals with Staphylococcus aureus. Nature of the test: Antibacterial activity against Staphylococcus aureus ATCC 29213 at 64 ug/ml by broth microdilution assay. It counts as functional, organism-based.
The subject of a further test is KM-20L2. Nature of the test: Growth inhibition of human KM20L2 cells. It counts as functional.
Another test concerns NCI-H460. The experiment in a line: Growth inhibition of human NCI-H460 cells. In kind it is functional.
The subject of test [2] is Stenotrophomonas maltophilia. The experiment in a line: Antibacterial activity against Stenotrophomonas maltophilia ATCC 13637 at 64 ug/ml by broth microdilution assay. In kind it is functional, organism-based.
The test system of a further test is Streptococcus pneumoniae. The experiment in a line: Antibacterial activity against Streptococcus pneumoniae ATCC 6303 at 64 ug/ml by broth microdilution assay. In kind it is functional, organism-based.
The next test relates to Escherichia coli. Nature of the test: Antibacterial activity against Escherichia coli ATCC 25922 at 64 ug/ml by broth microdilution assay. In kind it is functional, organism-based.
For the next test, the system named is SF-268. The experiment in a line: Growth inhibition of human SF268 cells. In kind it is functional.
For a further test, the system named is BXPC-3. Nature of the test: Growth inhibition of human BxPC3 cells. In kind it is functional.
A further test deals with Enterobacter cloacae. The experiment in a line: Antibacterial activity against Enterobacter cloacae ATCC 13047 at 64 ug/ml by broth microdilution assay. It counts as functional, organism-based.
The subject of another test is Candida albicans. Nature of the test: Antifungal activity against Candida albicans ATCC 90028 at 64 ug/ml by broth microdilution assay. In kind it is functional, organism-based.
Test [3] concerns Enterococcus faecalis. Nature of the test: Antibacterial activity against Enterococcus faecalis ATCC 29212 at 64 ug/ml by broth microdilution assay. In kind it is functional, organism-based.
For another test, the system named is DU-145. The experiment in a line: Growth inhibition of human DU145 cells. In kind it is functional.
In another test the test system is Micrococcus luteus. Nature of the test: Antibacterial activity against Micrococcus luteus Presque Isle 456 at 64 ug/ml by broth microdilution assay. In kind it is functional, organism-based.
In a further test the test system is MCF7. The experiment in a line: Growth inhibition of human MCF7 cells. In kind it is functional.
Another test concerns Cryptococcus neoformans. Nature of the test: Antifungal activity against Cryptococcus neoformans ATCC 90112 at 64 ug/ml by broth microdilution assay. It counts as functional, organism-based.

≈ marks a conversion by molar mass, not a printed value. Calls of active or inactive are those of the source. The calls are words filed in the database; no cut-off is given here.

In the case of `CC(=O)OC/C=C1\CC[C@H]2[C@@H]3CC[C@H]4CC(=O)CC[C@]4(C)[C@H]3[C@@H](O)C[C@]12C`, the EC50 in the test with P388 came to 16.6 mg/L (≈ 44.3 µM).

Take `CC(=O)O[C@@H]1[C@@H](OC(C)=O)[C@H](C)O[C@H](OC/C=C2\CC[C@H]3[C@@H]4CC[C@H]5Cc6nc7c(nc6C[C@]5(C)[C@H]4[C@@H](O)C[C@]23C)C[C@@H]2CC[C@@H]3[C@H]([C@@H](O)C[C@]4(C)/C(=C/CO[C@H]5O[C@@H](C)[C@H](OC(C)=O)[C@@H](OC(C)=O)[C@H]5OC(C)=O)CC[C@@H]34)[C@@]2(C)C7)[C@@H]1OC(C)=O`: the EC50 in the test with P388 was more than 10 mg/L.

Regarding `CC(=O)O[C@@H]1[C@@H](OC(C)=O)[C@H](C)O[C@@H](OC/C=C2\CC[C@H]3[C@@H]4CCC5=CC(=O)CC[C@]5(C)[C@H]4[C@@H](O)C[C@]23C)[C@@H]1OC(C)=O`, in the test with P388, the EC50 was more than 10 mg/L.

Turning to `CC(=O)O[C@@H]1[C@@H](OC(C)=O)[C@H](C)O[C@H]2OC(C)(OC/C=C3\CC[C@H]4[C@@H]5CC[C@H]6Cc7nc8c(nc7C[C@]6(C)[C@H]5[C@@H](O)C[C@]34C)C[C@@H]3CC[C@@H]4[C@H]([C@@H](O)C[C@]5(C)/C(=C/COC6(C)O[C@@H]7O[C@@H](C)[C@H](OC(C)=O)[C@@H](OC(C)=O)[C@H]7O6)CC[C@@H]45)[C@@]3(C)C8)O[C@@H]21` (stereo partly specified), the EC50 in the test on P388 was more than 10 mg/L.

In the case of `C[C@@H]1O[C@@H](OC/C=C2\CC[C@H]3[C@@H]4CCC5=CC(=O)CC[C@]5(C)[C@H]4[C@@H](O)C[C@]23C)[C@H](O)[C@H](O)[C@H]1O`, the EC50 in the test on P388 is more than 100 mg/L.

As for `CC(=O)O[C@@H]1[C@@H](OC(C)=O)[C@H](C)O[C@@H](OC/C=C2\CC[C@H]3[C@@H]4CC[C@H]5Cc6nc7c(nc6C[C@]5(C)[C@H]4[C@@H](O)C[C@]23C)C[C@@H]2CC[C@@H]3[C@H]([C@@H](O)C[C@]4(C)/C(=C/CO[C@H]5O[C@@H](C)[C@H](OC(C)=O)[C@@H](OC(C)=O)[C@H]5OC(C)=O)CC[C@@H]34)[C@@]2(C)C7)[C@@H]1OC(C)=O`, in the test on P388, the EC50 is more than 10 mg/L.

In the test on Enterococcus faecalis [1], `CC(=O)OC/C=C1\CC[C@H]2[C@@H]3CC[C@H]4Cc5nc6c(nc5C[C@]4(C)[C@H]3[C@@H](O)C[C@]12C)C[C@@H]1CC[C@@H]2[C@H]([C@@H](O)C[C@]3(C)/C(=C/COC(C)=O)CC[C@@H]23)[C@@]1(C)C6` had an MIC of 32 mg/L (≈ 43.2 µM). The EC50 in the test on P388 came out at 77.2 mg/L (≈ 104 µM).

`C[C@@H]1O[C@H]2OC(C)(OC/C=C3\CC[C@H]4[C@@H]5CC[C@H]6Cc7nc8c(nc7C[C@]6(C)[C@H]5[C@@H](O)C[C@]34C)C[C@@H]3CC[C@@H]4[C@H]([C@@H](O)C[C@]5(C)/C(=C/COC6(C)O[C@@H]7O[C@@H](C)[C@H](O)[C@@H](O)[C@H]7O6)CC[C@@H]45)[C@@]3(C)C8)O[C@@H]2[C@H](O)[C@H]1O` (stereo partly specified): the result (in the test with Neisseria gonorrhoeae; with Staphylococcus aureus; in [2]; in the test on Streptococcus pneumoniae; in the test on Escherichia coli; in the test with Enterobacter cloacae) was inactive. The outcome in the test with Candida albicans, in the test with Enterococcus faecalis [3], in the test on Micrococcus luteus and with Cryptococcus neoformans was inactive. Further, the GI50 in the test on KM-20L2 turned out to be 3.3 mg/L (≈ 3.19 µM); in the test on NCI-H460, 3.8 mg/L (≈ 3.68 µM); in the test with SF-268, 3 mg/L (≈ 2.9 µM); with BXPC-3 it was 2.1 mg/L (≈ 2.03 µM); in the test with DU-145, 3 mg/L (≈ 2.9 µM); with MCF7 it was 2.8 mg/L (≈ 2.71 µM). The EC50 in the test on P388 is more than 10 mg/L.

As to `C[C@@H]1O[C@H]2OC(C)(OC/C=C3\CC[C@H]4[C@@H]5CCC6=CC(=O)CC[C@]6(C)[C@H]5[C@@H](O)C[C@]34C)O[C@@H]2[C@H](O)[C@H]1O` (stereo partly specified), in the test on P388, the EC50 worked out at 5.2 mg/L (≈ 10 µM).

For the compound `C[C@]12Cc3nc4c(nc3C[C@@H]1CC[C@@H]1[C@@H]2[C@@H](O)C[C@]2(C)/C(=C/CO)CC[C@@H]12)C[C@@]1(C)[C@@H](CC[C@@H]2[C@@H]1[C@@H](O)C[C@]1(C)/C(=C/CO)CC[C@@H]21)C4`, the outcome (with Neisseria gonorrhoeae; in the test on Staphylococcus aureus; in test [2]; with Streptococcus pneumoniae; with Escherichia coli; in the test with Enterobacter cloacae) was inactive. The result with Candida albicans, with Enterococcus faecalis [3], in the test with Micrococcus luteus and in the test on Cryptococcus neoformans was inactive. Further, the GI50 in the test with KM-20L2 was determined as 1.7 mg/L (≈ 2.59 µM); in the test on NCI-H460, 2.2 mg/L (≈ 3.35 µM); in the test on SF-268 it was 1.7 mg/L (≈ 2.59 µM); in the test on BXPC-3, 1.3 mg/L (≈ 1.98 µM); with DU-145, 1.8 mg/L (≈ 2.74 µM); in the test with MCF7, 1.3 mg/L (≈ 1.98 µM). Further, the EC50 in the test on P388 was found to be 1.5 mg/L (≈ 2.28 µM).

As to `C[C@@H]1O[C@H](OC/C=C2\CC[C@H]3[C@@H]4CC[C@H]5Cc6nc7c(nc6C[C@]5(C)[C@H]4[C@@H](O)C[C@]23C)C[C@@H]2CC[C@@H]3[C@H]([C@@H](O)C[C@]4(C)/C(=C/CO[C@H]5O[C@@H](C)[C@H](O)[C@@H](O)[C@H]5O)CC[C@@H]34)[C@@]2(C)C7)[C@H](O)[C@H](O)[C@H]1O`, the GI50 was determined as 1.8 mg/L (≈ 1.9 µM) in the test with KM-20L2; 1.8 mg/L (≈ 1.9 µM) in the test on NCI-H460; 1.8 mg/L (≈ 1.9 µM) in the test with SF-268; 1.8 mg/L (≈ 1.9 µM) with BXPC-3; 2 mg/L (≈ 2.11 µM) with DU-145; 1.8 mg/L (≈ 1.9 µM) with MCF7. Besides, the EC50 with P388 was more than 10 mg/L.

`CC(=O)OC/C=C1\CC[C@H]2[C@@H]3CC[C@H]4CC(=O)[C@H](Br)C[C@]4(C)[C@H]3[C@@H](O)C[C@]12C`: in the test on P388, the EC50 came to 6.6 mg/L (≈ 14.6 µM).

On to `C=C[C@]1(C)CCC2=C1C[C@H](O)[C@H]1[C@H]2CC[C@H]2Cc3nc4c(nc3C[C@@]21C)C[C@@H]1CC[C@H]2C3=C(C[C@H](O)[C@@H]2[C@@]1(C)C4)[C@](C)(C=C)CC3`, for which the EC50 in the test with P388 was more than 10 mg/L.

On to `CC(=O)O[C@@H]1[C@@H](OC(C)=O)[C@H](C)O[C@H]2OC(C)(OC/C=C3\CC[C@H]4[C@@H]5CCC6=CC(=O)CC[C@]6(C)[C@H]5[C@@H](O)C[C@]34C)O[C@@H]21` (stereo partly specified), for which the EC50 with P388 was 9.5 mg/L (≈ 15.8 µM).

Turning to `CC(=O)O[C@@H]1[C@@H](OC(C)=O)[C@H](C)O[C@@H](OC/C=C2\CC[C@H]3[C@@H]4CC[C@H]5Cc6nc7c(nc6C[C@]5(C)[C@H]4[C@@H](O)C[C@]23C)C[C@@H]2CC[C@@H]3[C@H]([C@@H](O)C[C@]4(C)/C(=C/CO[C@@H]5O[C@@H](C)[C@H](OC(C)=O)[C@@H](OC(C)=O)[C@H]5OC(C)=O)CC[C@@H]34)[C@@]2(C)C7)[C@@H]1OC(C)=O`, in the test on P388, the EC50 is more than 10 mg/L.

Consider `CC(=O)OC/C=C1\CC[C@H]2[C@@H]3CCC4=CC(=O)CC[C@]4(C)[C@H]3[C@@H](O)C[C@]12C`, for which, in the test on P388, the EC50 is more than 100 mg/L.

For the compound `CC(=O)OC/C=C1\CC[C@H]2[C@@H]3CC[C@H]4CC(=O)[C@H](N=[N+]=[N-])C[C@]4(C)[C@H]3[C@@H](O)C[C@]12C`, in the test on P388, the EC50 is 12 mg/L (≈ 28.9 µM).

These data come from ChEMBL document CHEMBL1914451, “The cephalostatins. 21. Synthesis of bis-steroidal pyrazine rhamnosides (1)” (2011).
